Legend:
slug = experiment: Insecticidal activity: test of killing slugs; assay type: in vivo; conditions: 1% aqueous solution, 2 pushes: 1.88 mL sprayed from 15 cm above
Protocol: In order to check the insect control performance of the ozonized surfactant, a test of killing slugs was performed. A slug was put into a glass petri dish. Onto the slug, a 1% aqueous solution of the ozonized surfactant obtained in Example 4, 5, 7, 9 or 10 (2 pushes: 1.88 mL) was sprayed from 15 cm above. After that, the time elapsed until the slug died (the motion stopped) was measured. As a control, the same evaluation was simultaneously performed with a commercial insecticide (product name: NEW Namekuji (slug) Spray, made by Sumitomo Chemical Garden Products Inc., Lot No. 11.05 0806JE) containing a natural substituted phenol, a copper compound and an alcohol, as active ingredients.

[1] = test system: Cladosporium cladosporioides; experiment: Minimum inhibitory concentration test; assay type: cell-based; conditions: 96 h, 25° C., 1 × 10^5/mL
From the text: (§1) In order to check the antimicrobial and antifungal performance of the ozonized surfactant, bacteriostatic and bactericidal effects of the ozonized surfactant against five kinds of microorganisms were examined. The five kinds of target microorganisms were Staphylococcus aureus as a prokaryotic gram-positive bacterium, Escherichia coli as a prokaryotic gram-negative bacterium, Saccharomyces cerevisiae and Trichophyton mentagrophytes as fungi which are eukaryotic microorganisms, and Cladosporium cladosporioides. One loopful of each strain was inoculated in a medium optimum for the strain, and cultured under culture conditions optimum for the strain to prepare a cell suspension for inoculation.
(§2) The solution A obtained in Example 4 was placed in test tubes, and was then diluted with sterilized water 2-, 4-, 8-, 16-, 32-, 64-, 128-, 256-, and 512-fold to prepare 10 levels of diluted ozonized surfactant solutions. Into L-shaped test tubes for a biophotorecorder, 9 mL of each medium shown in Table 1 was dispensed and sterilized by steam. Then, 1 mL of each of the 10 levels of diluted ozonized surfactant solutions was added aseptically to the L-shaped test tubes to prepare 10 mL of 10-, 20-, 40-, 80-, 160-, 320-, 640-, 1280-, 2560-, and 5120-fold diluted solutions of the solution A (hereinafter, referred to as a “graduated dilution series to be tested”). Into the graduated dilution series to be tested, 0.1 mL of the cell suspension for inoculation was inoculated (the initial number of cells of each microorganism is shown in Table 1). The L-shaped test tubes into which the cell suspension had been inoculated were set in a biophotorecorder (made by Advantec Toyo Kaisha, Ltd.) and subjected to shaking culture (30 rpm) under conditions shown in Table 1. The test tubes to be used were sterilized by dry heat (165° C. for 1 hour), and the media, sterilized water, and tools were sterilized by steam in an autoclave (121° C. for 15 minutes). In the following tests, they were sterilized in the same manner.
(§3) Another graduated dilution series was prepared between the temporary minimum inhibitory concentration and the concentration of the ozonized surfactant nearest to the temporary minimum inhibitory concentration, at which turbidity occurred. Then, the same operation as described above was again carried out. […] This MIC test against these five kinds of microorganisms was carried out also using, as a control, the surfactant solution before ozone treatment.

[2] = test system: Trichophyton mentagrophytes; experiment: Minimum inhibitory concentration test; assay type: cell-based; conditions: 96 h, 25° C., 1 × 10^5/mL
From the text: as §1, §2, §3

Escherichia coli [3] = experiment: Minimum inhibitory concentration test; assay type: cell-based; conditions: 24 h, 30° C., 1 × 10^7/mL
From the text: as §1, §2, §3

Saccharomyces cerevisiae = experiment: Minimum inhibitory concentration test; assay type: cell-based; conditions: 48 h, 28° C., 1 × 10^6/mL
From the text: as §1, §2, §3

Staphylococcus aureus [4] = experiment: Minimum inhibitory concentration test; assay type: cell-based; conditions: 24 h, 37° C., 1 × 10^7/mL
From the text: as §1, §2, §3

[5] = test system: mold (filamentous fungus); experiment: Evaluation of antiseptic activity in thickener solution; assay type: cell-based; conditions: 0.1% in 3.5% Carbopol ETD2020 aqueous solution, 25° C.
Protocol: In order to check the antiseptic performance of ozonized surfactants, the ozonized surfactants were added to a substance susceptible to mold. […] Into a 100 mL-glass bottle, 50 mL of the sample was charged. The bottles were kept at 25° C. in a thermostatic air chamber, and temporal changes were visually observed. […] The mold-like material was removed and examined under a 700-power microscope. As a result, spores were detected and the material was identified as a filamentous fungus. The above results confirmed the antiseptic activity of the ozonized surfactants.

Pseudomonas aeruginosa = experiment: Bactericidal activity test with variation of the period of action; assay type: cell-based
Protocol: (§4) In order to check the bactericidal activity of the ozonized surfactant, a bactericidal activity test was performed with variation of the period of action.
(§5) Developed colonies were scraped off and a bacterial solution of about 10^8 CFU/mL was prepared.
(§6) Into 50 mL centrifuging tubes, 10 mL each of 0.5% and 0.05% aqueous solutions of the ozonized surfactant obtained in Example 4 were separately poured. To each solution, 0.1 mL of sample bacterial solution was inoculated and mixed for a predetermined period of action at room temperature. To 10 mL of SCDLP bouillon medium (EIKEN CHEMICAL) of which the effectiveness as an inactivator had been confirmed beforehand, 0.1 mL of the resulting solution after a predetermined period of action was added for inactivation of bactericidal components. Then the bacteria count was measured. As a control test, the same operation was performed with the use of an unozonized surfactant or sterile purified water. A 10-fold serial dilution of each sample solution after inactivation was prepared. Each 1 mL of the undiluted and diluted sample solutions were separately mixed with about 20 mL of agar medium, and then cultured. After culturing, the number of colony forming units per 1 mL of each sample solution was counted.

Escherichia coli [6] = experiment: as above; assay type: cell-based
Protocol: as §4, §5, §6

Staphylococcus aureus [7] = experiment: as above; assay type: cell-based
Protocol: as §4, §5, §6

[8] = Conc. 0.05%, period of action 10 min
[9] = Conc. 0.05%, period of action 30 min
[10] = Conc. 0.5%, period of action 5 min
[11] = Conc. 0.5%, period of action 10 min
[12] = Conc. 0.5%, period of action 30 min

Question: “Ozonized POE (10 EO) oleyl ether [Example 4]” was tested. Which “Death time of slug” value (slug) did it give?
Answer: The value was 564 s.

Question: What about the Minimum inhibitory concentration [1] of the same substance?
Answer: The Minimum inhibitory concentration was 0.09%.

Question: And the Minimum inhibitory concentration [2]?
Answer: Its Minimum inhibitory concentration is 0.03%.

Question: And the Minimum inhibitory concentration (Escherichia coli [3])?
Answer: The Minimum inhibitory concentration was 0.25%.

Question: What about the Minimum inhibitory concentration (Saccharomyces cerevisiae) of the same substance?
Answer: The Minimum inhibitory concentration was 0.02%.

Question: What about the Minimum inhibitory concentration (Staphylococcus aureus [4]) of the same substance?
Answer: The Minimum inhibitory concentration was 0.11%.

Question: And the “Antiseptic activity of thickener soln. (visually observed), 1 month after” value [5]?
Answer: Its value is “Good”.

Question: And the “Antiseptic activity of thickener soln. (visually observed), 1 week after” value [5]?
Answer: Its value is “Good”.

Question: And the bacteria count (Pseudomonas aeruginosa; Conc. 0.05%, period of action 5 min, 0 min 4.5 × 10^6)?
Answer: Its bacteria count is 1.5 × 10^2 CFU/mL.

Question: What about the bacteria count (Pseudomonas aeruginosa; [8]) of the same substance?
Answer: Its bacteria count is <1 × 10^2 CFU/mL.

Question: What about the bacteria count (Pseudomonas aeruginosa; [9]) of the same substance?
Answer: The bacteria count was <1 × 10^2 CFU/mL.

Question: What about the bacteria count (Pseudomonas aeruginosa; [10]) of the same substance?
Answer: Its bacteria count is <1 × 10^2 CFU/mL.

Question: What about the bacteria count (Pseudomonas aeruginosa; [11]) of the same substance?
Answer: Its bacteria count is <1 × 10^2 CFU/mL.

Question: What about the bacteria count (Pseudomonas aeruginosa; [12]) of the same substance?
Answer: The bacteria count was <1 × 10^2 CFU/mL.

Question: And the bacteria count (Escherichia coli [6]; Conc. 0.05%, period of action 5 min, 0 min 3.8 × 10^6)?
Answer: Its bacteria count is 4.8 × 10^6 CFU/mL.

Question: And the bacteria count (Escherichia coli [6]; [8])?
Answer: Its bacteria count is <1 × 10^2 CFU/mL.

Question: What about the bacteria count (Escherichia coli [6]; [9]) of the same substance?
Answer: The bacteria count was <1 × 10^2 CFU/mL.

Question: And the bacteria count (Escherichia coli [6]; [10])?
Answer: The bacteria count was <1 × 10^2 CFU/mL.

Question: And the bacteria count (Escherichia coli [6]; [11])?
Answer: Its bacteria count is <1 × 10^2 CFU/mL.

Question: And the bacteria count (Escherichia coli [6]; [12])?
Answer: Its bacteria count is <1 × 10^2 CFU/mL.

Question: And the bacteria count (Staphylococcus aureus [7]; Conc. 0.05%, period of action 5 min, 0 min 8.2 × 10^6)?
Answer: The bacteria count was <1 × 10^2 CFU/mL.

Question: And the bacteria count (Staphylococcus aureus [7]; [8])?
Answer: Its bacteria count is 1 × 10^2 CFU/mL.

Question: And the bacteria count (Staphylococcus aureus [7]; [9])?
Answer: The bacteria count was <1 × 10^2 CFU/mL.

Question: What about the bacteria count (Staphylococcus aureus [7]; [10]) of the same substance?
Answer: The bacteria count was <1 × 10^2 CFU/mL.

Question: And the bacteria count (Staphylococcus aureus [7]; [11])?
Answer: The bacteria count was <1 × 10^2 CFU/mL.

Question: And the bacteria count (Staphylococcus aureus [7]; [12])?
Answer: The bacteria count was <1 × 10^2 CFU/mL.

Reference: patent publication US20100254928A1, “NOVEL COMPOSITION CONTAINING OZONIZED SURFACTANT” (priority 2007, published 2010)
